Source: patent US4853221A, “Method for treating non-small cell lung cancer, head and neck cancers and breast cancer” (Warner-Lambert Company, priority 1987, dated 1989)

Columns and labels:
[1] = tested on: non-small cell lung cancer; assay: Phase I clinical trials, non-small cell lung cancer; format: in vivo, human; details: single agent
Description: (§1) Several Phase I clinical trials employing trimetrexate in human patients were carried out. In one study, 36 patients were treated with trimetrexate as a single agent at daily doses of 0.5 mg/m^2 /day to 12 mg/m^2 /day administered intravenously for five days.
(§2) In additional Phase I clinical studies, patients were administered trimetrexate with single intravenous doses ranging between 5 and 450 mg/m^2 and with weekly doses of slightly greater than 100 mg/m^2.

Breast tumor = assay: Human tumor cloning system, breast tumors; format: cell-based; details: one hour, 10 specimens
Text: (§3) The activity of trimetrexate was compared with that of methotrexate in tests with a human tumor cloning system (Latham, et al., Proc. Am. Assoc. Cancer Res., 24: 278 (1983)). The data from these tests appear in Table III were the activities are expressed as the numbers of tumors with 50% or greater reduction in tumor colony forming units after one hour exposure to the drug.

[2] = tested on: non-small cell lung cancer; assay: Phase II trial, non-small cell lung cancer; format: in vivo, human
Description: The efficacy and safety of trimetrexate in the treatment of patients with non-small cell lung cancer was evaluated in a 16-center Phase II study.
Initially, all patients received a single 8 mg/m^2 dose of trimetrexate daily for five days of a 21-day treatment course. The dose was administered at three- or four-week intervals, with the number of treatment courses dependent upon the patient's response.
Objective response was determined by a decrease from baseline in tumor size as set forth by the World Health Organization (WHO) response criteria. Duration of response was measured from the date of first treatment to the first date when progressive disease was documented.
Responses were classified as complete or partial. A complete response was defined as no evidence of disease and a partial response as a 50% or greater decrease in overall tumor size without evidence of progression in 28 days.

P388 = assay: Antitumor activity against P388 leukemia in mice; format: in vivo, mouse; details: for Life Span % ILS / Life Span % T/C: optimal dose 40 mg/kg (dose range 80-2.5), ip daily, Days 1-9
Description: The growth inhibition properties of 5-methyl-6-[[(3,4,5-trimethoxyphenyl)amino]methyl]-2,4-quinazolinediamine (trimetrexate) against several transplanted murine tumors were evaluated employing the antitumor screening program of the Drug Evaluation Branch of the National Cancer Institute. The protocols for these tests is described in Cancer Chemotherapy Reports, 3: 1-103 (1972). The dosing schedules are results from these tests appear in Table IV.
In the L1210, P388, and B-16 melanoma models, results are expressed as a percentage of median control survival time. Percentage of increase in survival time and/or cures (30 day survivors) were the parameters used to measure the effectiveness of the agents. An initial median survival value for treated over control percentage (% T/C) equal to or greater than 125% was considered indicative of activity. For confirmatory activity, two multidose assays must show % T/C values equal to or greater than 150%.
Percent increase in median life span (% ILS) values appearing in the tables were calculated from the formula; 100×(median life span in days of treated mice minus median life span in days of untreated mice) divided by median life span in days of untreated control mice. That is, % ILS=[100×(T-C)]/C. % T/C and %ILS are directly interconvertible by the formula % ILS=% T/C -100.
L1210 Leukemic Cells (10^5 /mouse) and P388 leukemic cells (10^6 /mouse)were in the ascites form and were transferred to BD2F1 or CD2F1 mice by intraperitoneal (ip) injection of 0.1 ml of cells taken from animals bearing 6- to 7-day old tumors. Leukemic cells were injected ip one day prior to the start of treatment.
In all of the mouse tumor studies described above, routine controls consisted of matching ten normal mice (with no tumors) to each tumor-bearing treatment group and injecting them with the same drug at the same dosages, schedules, days of administration, and drug route as the tumor-bearing mice. In this way, drug-induced toxicity (lethality and weight loss) could be clearly separated from the effects of the drug on the tumors.

colon carcinoma = assay: Phase I clinical trials, colon carcinoma; format: in vivo, human; details: single agent
Description: as §1, §2

[3] = tested on: murine tumor cell lines (L5178Y, Sarcoma-180, Walker-256); assay: Comparison with methotrexate against murine tumor cell lines in vitro; format: cell-based; details: all of the murine tumor cell lines tested
Description: Two leukemia cell lines (L1210 and L5178Y) and two solid tumor cell lines (Sarcoma 180 and Walker 256) were used in these studies.
Logarithmically growing L1210 cells (approximately 3×10^5 cells/ml) were diluted with Fischer's medium (containing 10% horse serum) to an approximate concentration of 5×10^4 cells/ml. Cells were planted in duplicate into 15 ml culture tubes containing either no drug or various amounts of drug, and incubated for 48 hours at 37° C. before being counted.
Trimetrexate was also evaluated in a similar manner side-by-side with methotrexate for its effect on the growth of three additional murine cell lines (L5178Y, Sarcoma-180, and Walkler-256) and three human cell lines (acute myelogenous leukemia K-562, T-cell 8402, and B-cell 8392), propagated in vitro.

Lung tumor = assay: Human tumor cloning system, lung tumors; format: cell-based; details: one hour, 8 specimens
Text: as §3

With `COc1cc(NCc2ccc3nc(N)nc(N)c3c2C)cc(OC)c1OC` [Trimetrexate, 5-methyl-6-[[(3,4,5-trimethoxyphenyl)amino]methyl]-2,4-quinazolinediamine] the “patients with favorable responses” value [1] was “two”, the “Number of Tumors with 50% or Greater Decrease in Tumor Colony Forming Units” value (Breast tumor; trimetrexate 0.1 μg/ml) was 0 and the “Number of Tumors with 50% or Greater Decrease in Tumor Colony Forming Units” value (Breast tumor; trimetrexate 1.0 μg/ml) was 2. For the same molecule, the “patients with stable disease” value ([2]; 23 patients) was 39%, the “median time to progressive disease” value ([2]; 23 patients with stable disease) was 15.7 weeks and the “patients who only experienced progressive disease” value ([2]; 25 patients) was 42%. The “median time to progression” value ([2]; 25 patients who only experienced progressive disease) was 3.4 weeks, the “median time to progressive disease” value ([2]; 55 of the 59 evaluable patients, range 1.9-75.0) was 7.9 weeks and the “patients with partial response” value ([2]; 59 evaluable patients, initial 8 mg/m^2 daily for five days of a 21-day course) was “Eleven”. The “response rate (partial response)” value ([2]; 95% confidence interval 9%-29%, 59 evaluable patients) was 19%, the “additional patients with 50% regression only by liver measurements” value ([2]; in vivo) was “One” and the “overall median survival time” value ([2]; in vivo) was 26.4 weeks. For the same molecule, the “patients who only experienced progressive disease (number)” value ([2]; in vivo) was 25 patients, the “patients with stable disease (number)” value ([2]; in vivo) was 23 patients and the “patients without progressive disease at end of reporting period” value ([2]; in vivo) was “Four”. The “median time to progressive disease” value ([2]; patients who responded, range 11.1-47.0) was 24.9 weeks, the “median duration of partial response” value ([2]; range 5.6-40.7) was 15.3 weeks and the “antitumor activity” value (P388; mouse, in vivo) was “good activity”. The “Life Span % ILS” value (P388; first line) was 143%, the “Life Span % T/C” value (P388; first line) was 243% and the “Life Span % ILS” value (P388; second line) was 142%. The “Life Span % T/C” value (P388; second line) was 242%, the “patients with favorable responses” value (colon carcinoma) was “four” and the “potency relative to methotrexate” value [3] was “more potent than methotrexate”. For the same molecule, the “Number of Tumors with 50% or Greater Decrease in Tumor Colony Forming Units” value (Lung tumor; trimetrexate 0.1 μg/ml) was 1 and the “Number of Tumors with 50% or Greater Decrease in Tumor Colony Forming Units” value (Lung tumor; trimetrexate 1.0 μg/ml) was 1.
